{"source": "paper PMC12473897", "about": "(Toxics, 2025)", "tested_on": "T1, Coptodon zillii liver rhodanese", "T1 construct": "gene tst", "conditions": "co-substrate KCN; standard assay borate pH 9.4, 37 °C; 5-50 mM range", "data": [{"smiles": "O=S(O)(O)=S", "note": "[sodium thiosulphate]", "values": [{"measurement": "Km", "value": 20, "unit": "mM"}]}]}
